The target in one assay is T1, human CB2 receptors (Homo sapiens, UniProt P34972).
T1 construct: expressed in transfected cells; host or cells: HEK293
The experiment in a line: human CB2 radioligand binding assay ([3H]CP 55,940 competition). As to conditions: human CB2 (Ki, nM), HEK293 membranes, 0.5 nM [3H]CP 55,940. Summed up:
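Displacement of 0.5 nM [3H]CP 55,940 over 0.01 nM-10 μM test compound, measured on human CB2 membranes from stably transfected HEK293 cells. Incubation 90 min at 30 °C in Tris/EDTA/MgCl2/BSA, pH 7.4, then filter-bound radioactivity counted; 10 μM unlabeled CP 55,940 defined nonspecific binding.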

The target in the next assay is T2, Rat CB1 (Rattus norvegicus, UniProt P20272).
T2 construct: expressed in transfected cells; host or cells: HEK
The experiment in a line: rat CB1 cyclase functional assay (HitHunter cAMP). The class given is cell-based. The settings on record: Rat CB1 cyclase (EC50, nM), HEK cells, forskolin 37 μM. In short, it runs like this:
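HEK cells expressing rat CB1 or CB2, 10,000 cells/well, incubated 20 min at 37° C with test ligands plus forskolin (37 μM for CB1, 18 μM for CB2) in DPBS with 0.01% BSA. cAMP read by enzyme-complementation luminescence after lysis; EC50 from sigmoidal dose-response fit.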

The target of assay [1] is T3, rat CB2 (Rattus norvegicus, UniProt Q9QZN9).
T3 sequence (Q9QZN9 1-360): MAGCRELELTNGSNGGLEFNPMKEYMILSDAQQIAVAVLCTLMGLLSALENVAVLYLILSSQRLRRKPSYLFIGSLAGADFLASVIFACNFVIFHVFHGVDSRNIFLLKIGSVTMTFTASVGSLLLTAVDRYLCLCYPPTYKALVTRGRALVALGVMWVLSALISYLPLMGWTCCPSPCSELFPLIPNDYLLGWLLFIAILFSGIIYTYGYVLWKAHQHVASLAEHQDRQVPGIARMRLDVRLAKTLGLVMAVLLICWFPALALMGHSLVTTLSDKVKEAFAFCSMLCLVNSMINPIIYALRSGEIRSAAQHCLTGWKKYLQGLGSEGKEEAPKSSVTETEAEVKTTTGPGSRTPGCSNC
The experiment in a line: rat CB2 radioligand binding assay ([3H]CP 55,940 competition). More on the design: expressed in transfected cells; host or cells: HEK293. As to conditions: rat CB2 (Ki, nM), HEK293 membranes, 0.5 nM [3H]CP 55,940. Summed up:
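Competition binding against 0.5 nM [3H]CP 55,940 (pH 7.4 buffer with 0.5 mg/mL BSA, 30 °C, 45 min), with displacers spanning 0.01 nM–10 μM at five concentrations. Receptor source: stably transfected HEK293 membranes, 20 μg/well. Nonspecific binding defined by 10 μM unlabeled CP 55,940; readout by filtration and counting.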

Assay [2] concerns the target T3, rat CB2. The experiment in a line: rat CB2 cyclase functional assay (HitHunter cAMP). The assay is classed as cell-based. As to conditions: rat CB2 cyclase (EC50, nM), HEK cells, forskolin 18 μM. More on the design: expressed in transfected cells; host or cells: HEK. As to the method: The cyclase functional assays were performed using the HitHunter™ cAMP assay kit from DiscoveRx (Fremont, Calif.) according to vendor's protocol. Briefly, HEK cells expressing CB2 or CB1 receptors (rat or human) were detached using cell dissociation buffer (Invitrogen, Carlsbad, Calif.), dispersed and placed in suspension at 10,000 cells per well in 96 well plates prior to the assay. Cell suspensions were incubated at 37° C. for 20 min with variable concentrations of test ligands and or 10 μM CP 55,940-positive control in the presence of a fixed concentration of forskolin (18 μM for rat CB2 and 37 μM for rat CB1) in Dulbescco's phosphate-buffered saline (Invitrogen, Carlsbad, Calif.) supplemented with bovine serum albumin (0.01% final concentration). The reactions were terminated by the addition of lysis buffer and the luminescence was detected following the procedure according to the manufacturer's instructions. EC50 values were calculated using sigmoidal dose-response curve fitting from Prism (GraphPad).

T2 sequence (P20272 whole entry): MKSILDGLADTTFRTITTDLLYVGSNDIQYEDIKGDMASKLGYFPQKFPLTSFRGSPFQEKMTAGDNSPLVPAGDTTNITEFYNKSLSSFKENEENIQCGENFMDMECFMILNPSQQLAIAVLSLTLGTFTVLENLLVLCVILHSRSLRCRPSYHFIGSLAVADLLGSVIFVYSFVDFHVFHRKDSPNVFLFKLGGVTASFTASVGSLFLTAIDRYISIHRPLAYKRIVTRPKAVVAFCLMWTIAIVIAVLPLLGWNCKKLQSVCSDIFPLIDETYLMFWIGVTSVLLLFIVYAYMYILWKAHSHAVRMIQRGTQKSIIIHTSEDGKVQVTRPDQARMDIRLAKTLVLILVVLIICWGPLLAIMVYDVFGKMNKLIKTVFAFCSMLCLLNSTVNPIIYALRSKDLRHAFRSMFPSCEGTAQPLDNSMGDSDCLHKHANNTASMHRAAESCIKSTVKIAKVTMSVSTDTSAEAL
T1 sequence (P34972 whole entry): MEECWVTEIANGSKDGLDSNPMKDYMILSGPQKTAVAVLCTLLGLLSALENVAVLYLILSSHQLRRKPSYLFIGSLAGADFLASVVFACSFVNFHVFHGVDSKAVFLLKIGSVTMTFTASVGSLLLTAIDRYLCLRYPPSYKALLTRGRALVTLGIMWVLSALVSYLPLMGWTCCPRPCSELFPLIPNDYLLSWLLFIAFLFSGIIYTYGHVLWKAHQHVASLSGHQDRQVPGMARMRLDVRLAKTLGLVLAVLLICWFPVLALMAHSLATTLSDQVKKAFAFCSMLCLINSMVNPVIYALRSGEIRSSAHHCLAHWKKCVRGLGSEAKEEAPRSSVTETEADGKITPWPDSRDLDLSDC

Consider `CN1CCC[C@H]1COc1ccc(C(F)(F)F)cc1C(=O)/N=c1\oc(C(C)(C)C)cn1CC1CCC1` [Example 75], for which the Ki on human CB2 receptors was 42 nM; on rat CB2 [1], 44 nM. The EC50 came to 1360 nM at Rat CB1 and 0.19 nM on rat CB2 [2].
For `Cn1c(C(C)(C)C)c/c(=N\C(=O)c2cc(C(F)(F)F)ccc2OC[C@@H]2CCCO2)n1CC1CC1` [Example 27, N-[(3E)-5-tert-butyl-2-(cyclopropylmethyl)-1-methyl-1,2-dihydro-3H-pyrazol-3-ylidene]-2-[(2S)-tetrahydrofuran-2-ylmethoxy]-5-(trifluoromethyl)benzamide], in that order: 23 nM, 9.4 nM, 3370 nM and 0.2 nM.
For `CCOCCOCCOc1ccc(C(F)(F)F)cc1C(=O)/N=c1\cc(C(C)(C)C)n(C)n1C[C@H]1CCCO1` [Example 47, N-{(3E)-5-tert-butyl-1-methyl-2-[(2R)-tetrahydrofuran-2-ylmethyl]-1,2-dihydro-3H-pyrazol-3-ylidene}-2-[2-(2-ethoxyethoxy)ethoxy]-5-(trifluoromethyl)benzamide], in that order: 70 nM, 89 nM, greater than 27000 nM and 5.6 nM.
For `Cn1c(C(C)(C)C)c/c(=N\C(=O)c2cc(C(F)(F)F)ccc2OC[C@H]2OCC[C@H]2F)n1C[C@H]1CCCO1` [Example 24] the same measures were 16 nM, 20 nM, 9200 nM and 0.28 nM.
`Cn1c(C(C)(C)C)c/c(=N\C(=O)c2cc(C(F)(F)F)ccc2OC[C@@H]2CCCCN2)n1C[C@H]1CCCO1` [Example 88, N-{(3E)-5-tert-butyl-1-methyl-2-[(2R)-tetrahydrofuran-2-ylmethyl]-1,2-dihydro-3 H-pyrazol-3-ylidene}-2-[(2S)-piperidin-2-ylmethoxy]-5-(trifluoromethyl)benzamide]: the Ki at human CB2 receptors came out at 14 nM; on rat CB2 [1] it was 3.5 nM. The EC50 at Rat CB1 is 702 nM; on rat CB2 [2], 0.45 nM.
For `CC(C)(C)c1cn(C[C@H]2CCCO2)/c(=N/C(=O)c2cc(C(F)(F)F)ccc2OCCN2CCCC2)o1` [Example 77, N-[(2Z)-5-tert-butyl-3-[(2R)-tetrahydrofuran-2-ylmethyl]-1,3-oxazol-2(3 H)-ylidene]-2-(2-pyrrolidin-1-ylethoxy)-5-(trifluoromethyl)benzamide] the same measures were 96 nM, 73 nM, 2560 nM and 0.1 nM.
For `Cn1c(C(C)(C)C)c/c(=N\C(=O)c2cc(C(F)(F)F)ccc2OC[C@@H]2CCCO2)n1C[C@H]1CCCO1` [Example 8, N-{(3E)-5-tert-butyl-1-methyl-2-[(2R)-tetrahydrofuran-2-ylmethyl]-1,2-dihydro-3H-pyrazol-3-ylidene}-2-[(2S)-tetrahydrofuran-2-ylmethoxy]-5-(trifluoromethyl)benzamide], in that order: 13 nM, 4.3 nM, 6340 nM and 0.59 nM.
For `CCCCn1nc(C(C)(C)C)s/c1=N\C(=O)c1cc(C(F)(F)F)ccc1OCC1CCCCN1C` (stereo not drawn) [Example 7, N-[(2Z)-3-butyl-5-tert-butyl-1,3,4-thiadiazol-2(3H)-ylidene]-2-[(1-methylpiperidin-2-yl)methoxy]-5-(trifluoromethyl)benzamide], the Ki at human CB2 receptors and at rat CB2 [1] was 2.5 nM throughout. In addition, the EC50 on Rat CB1 was found to be 1060 nM; on rat CB2 [2], 2.9 nM.
For `CN1CC[C@H]1COc1ccc(C(F)(F)F)cc1C(=O)/N=c1\oc(C(C)(C)C)cn1C[C@H]1CCCO1` [Example 74, N-[(2Z)-5-tert-butyl-3-[(2R)-tetrahydrofuran-2-ylmethyl]-1,3-oxazol-2(3 H)-ylidene]-2-{[(2S)-1-methylazetidin-2-yl]methoxy}-5-(trifluoromethyl)benzamide], the Ki on human CB2 receptors was determined as 188 nM; on rat CB2 [1] it was 96 nM. In addition, the EC50 at Rat CB1 worked out at 3350 nM; at rat CB2 [2] it was 0.42 nM.
For `Cn1c(C(C)(C)C)c/c(=N\C(=O)c2cc(C(F)(F)F)ccc2OCc2cccnc2)n1C[C@H]1CCCO1` [Example 43, N-{(3E)-5-tert-butyl-1-methyl-2-[(2R)-tetrahydrofuran-2-ylmethyl]-1,2-dihydro-3H-pyrazol-3-ylidene}-2-(pyridin-3-ylmethoxy)-5-(trifluoromethyl)benzamide] the same measures were 220 nM, 56 nM, greater than 27000 nM and 2.4 nM.
For `Cn1c(C(C)(C)C)c/c(=N\C(=O)c2cc(C(F)(F)F)ccc2OCCS(C)(=O)=O)n1C[C@H]1CCCO1` [Example 56] the same measures were 66 nM, 28 nM, 2780 nM and 0.93 nM.
For `Cn1c(C(C)(C)C)c/c(=N\C(=O)c2cc(C(F)(F)F)ccc2OCC(O)CO)n1C[C@H]1CCCO1` (stereo partly drawn) [Example 42], in that order: 20 nM, 11 nM, 6100 nM and 0.34 nM.
Take `CCS(=O)(=O)NCCOc1ccc(C(F)(F)F)cc1C(=O)/N=c1\cc(C(C)(C)C)n(C)n1C[C@H]1CCCO1` [Example 50]: the Ki at human CB2 receptors turned out to be 21 nM; at rat CB2 [1], 8.5 nM. Besides, the EC50 on Rat CB1 is 1180 nM; on rat CB2 [2] it was 0.12 nM.
For `Cn1c(C(C)(C)C)c/c(=N\C(=O)c2cc(C(F)(F)F)ccc2OCc2cnccn2)n1C[C@H]1CCCO1` [Example 40, N-{(3E)-5-tert-butyl-1-methyl-2-[(2R)-tetrahydrofuran-2-ylmethyl]-1,2-dihydro-3H-pyrazol-3-ylidene}-2-(pyrazin-2-ylmethoxy)-5-(trifluoromethyl)benzamide] the same measures were 126 nM, 73 nM, greater than 27000 nM and 3.3 nM.
For `CCCCn1nc(C(C)(C)C)s/c1=N\C(=O)c1cc(C(F)(F)F)ccc1OC[C@@H]1CCCN1C` [Example 29, N-[(2Z)-3-butyl-5-tert-butyl-1,3,4-thiadiazol-2(3H)-ylidene]-2-{[(2S)-1-methylpyrrolidin-2-yl]methoxy}-5-(trifluoromethyl)benzamide], in that order: 14 nM, 11 nM, 1680 nM and 3.7 nM.
For `Cn1c(C(C)(C)C)c/c(=N\C(=O)c2cc(C(F)(F)F)ccc2OC[C@H]2CCCO2)n1C[C@H]1CCCO1` [Example 1, N-{(3E)-5-tert-butyl-1-methyl-2-[(2R)-tetrahydrofuran-2-ylmethyl]-1,2-dihydro-3H-pyrazol-3-ylidene}-2-[(2R)-tetrahydrofuran-2-ylmethoxy]-5-(trifluoromethyl)benzamide] the same measures were 51 nM, 23 nM, 5510 nM and 1.1 nM.
For `CSCCCOc1ccc(C(F)(F)F)cc1C(=O)/N=c1\cc(C(C)(C)C)n(C)n1C[C@H]1CCCO1` [Example 58], the Ki on human CB2 receptors was found to be 3.9 nM; at rat CB2 [1] it was 5.1 nM. Also, the EC50 on Rat CB1 is greater than 27000 nM; at rat CB2 [2], 0.7 nM.
Regarding `Cn1c(C(C)(C)C)c/c(=N\C(=O)c2cc(C(F)(F)F)ccc2OCCN2CCCC2=O)n1C[C@H]1CCCO1` [Example 15], the Ki on human CB2 receptors is 193 nM; on rat CB2 [1], 203 nM. Moreover, the EC50 on Rat CB1 is greater than 27000 nM; on rat CB2 [2], 1.4 nM.

Usually Ki stands for the equilibrium dissociation constant of an inhibitor or competing ligand from its target. A lower Ki goes with a stronger hold on the target. As usually defined, the EC50 is the midpoint of the concentration-response curve.

Source of the values: patent US8188135B2, “Compounds as cannabinoid receptor ligands” (priority 2008, dated 2012).
